Tested on: Panc-1 cells
Assay: APH cell viability assay, 3D culture
Format: cell-based, human
Excerpt: The following well-characterized human pancreatic ductal adenocarcinoma cell lines (ATCC) were used: HPAF II, BxPC-3, MIA-PaCa2 and Panc-1. These cell lines were generated from patient-derived tumors and are widely used model system to study pancreatic cancer (HPAF II: Kim YW, et al. Pancreas 4: 353-362, 1989; BxPC-3: Tan MH, et al. Cancer Invest. 4: 15-23, 1986; MIA-PaCa2: Yunis AA, et al. Int. J. Cancer 19: 128-135, 1977; Pacn-1: Lieber M, et al. Int. J. Cancer 15: 741-747, 1975).
Panc-1, HPAF II, KPC pancreatic adenocarcinoma cell lines were trypsin-treated and counted using the Casy Cell Counter according to the manufacturer's recommendations (GmbH). Subsequently, they were seeded onto round bottom non-tissue culture treated 96 well-plates (Falcon, BD NJ, USA) at a concentration of 2500 cells/well in 100 µl DMEM-F12 or phenol red-free DMEM-F12 medium, containing 10% FCS and supplemented with 20% methyl cellulose stock solution. For preparation of methylcellulose stock solution, 6 grams of methylcellulose powder (M0512, Sigma-Aldrich) was autoclaved in a 500 ml flask containing a magnetic stirrer (the methylcellulose powder is resistant to this procedure). The autoclaved methylcellulose was dissolved in preheated 250 ml basal medium (60°C) for 20 min (using the magnetic stirrer). Thereafter, 250 ml medium (room temperature) containing double amount of FCS (20%) was added to a final volume of 500 ml and the whole solution mixed overnight at 4°C. The final stock solution was aliquoted and cleared by centrifugation (5000g, 2 h, room temperature). Only the clear highly viscous supernatant was used for the spheroid assay (about 90-95% of the stock solution). For spheroid generation, 20% of the stock solution and 80% culture medium corresponding to final 0.24% methylcellulose was used. Spheroids were grown under standard culture conditions (5% CO2, at 37°C).
For 2D culture, cells were seeded on flat bottom 96 well plates (Costar) at a concentration of 2500 cells/well in 100 µl phenol red-free RPMI-F12 medium containing 10% FCS. For 3D culture, cells were seeded according to the description for spheroid preparation in phenol-free medium. […] The viability rate was calculated as a percentage of the untreated cells. All data were expressed as the mean ± SD of at least 8 replicates. To confirm the reliability of the APH assay on 2D culture, cell viability was measured using CellTiter-Glo assay (Promega).
The APH assay, which measures the activity of acidic phosphatase in the cells, was optimized for 3D cultures as follows. […] Absorbance at 405nm was measured within 10 minutes using a FluoStar OPTIMA plate reader (BMG Labtech). Viability rate was calculated as per cent of CTR untreated cells. All data are expressed as the mean ± SD of at least 8 replicates.

## O[C@H](c1cc(-c2ccc(Cl)cc2)nc2ccccc12)[C@@H]1CCCCN1 [S1, (R)-(2-(4-chlorophenyl)quinolin-4-yl)((S)-piperidin-2-yl)methanol]
Panc-1, 30 µM (data not shown)
  vacuole formation: vacuoles were formed
Panc-1, 3D culture, 30 µM, 24h
  effect on cell viability: did not affect cells
Panc-1, 3D culture, 30 µM, 48h
  decrease in cell viability: 55%
Panc-1, 3D culture, 30 µM, 72h
  decrease in cell viability: 64%

Source: patent publication EP3064205A1, “Therapeutic use of isomeric forms of 2-(4-chlorophenyl)quinolin-4-yl)(piperidin-2-yl)methanol” (Glionova AB, priority 2015, dated 2016)
